The text below walks through data of patent US6933261B2, “2,4,5-Trisubstituted phenylketoenols” (Bayer Aktiengesellschaft, priority 1995, dated 2005).

The structures appear in SMILES notation.

Holding throughout (type): in vivo
For data set [1], the system named is caterpillars of the diamond-back moth (Plutella maculipennis). The experiment in a line: Plutella test. Particulars: after 7 days, active compound concentration 0.1%, dipped cabbage leaves. How it is done: (§1) Plutella Test • Solvent: 7 parts by weight of dimethylformamide • Emulsifier: 1 part by weight of alkylaryl polyglycol ether To produce a suitable preparation of active compound, 1 part by weight of active compound is mixed with the stated amount of solvent and the stated amount of emulsifier, and the concentrate is diluted with water to the desired concentration. Cabbage leaves (Brassica oleracea) are treated by being dipped into the preparation of active compound of the desired concentration and are infested with caterpillars of the diamond-back moth (Plutella maculipennis) while the leaves are still moist. After the specified periods of time, the destruction in % is determined. 100% means that all the caterpillars have been killed; 0% means that none of the caterpillars have been killed.

The subject of data set [2] is caterpillars of the owlet moth (Spodoptera frugiperda). The experiment in a line: Spodoptera test. Particulars: after 7 days, active compound concentration 0.1%, dipped cabbage leaves. How it is done:
as §1, with “Spodoptera” for “Plutella”, “owlet” for “diamond-back”, “(Spodoptera frugiperda)” for “(Plutella maculipennis)”

For data set [3], the system named is rice green leafhopper (Nephotettix cincticeps). The experiment in a line: Nephotettix test. Particulars: after 6 days, active compound concentration 0.1%, dipped rice seedlings. How it is done: as §1, with “Nephotettix” for “Plutella”, “Rice seedlings (Oryza sativa)” for “Cabbage leaves (Brassica oleracea)”, “rice green leafhopper (Nephotettix cincticeps)” for “diamond-back moth (Plutella maculipennis)”, “seedlings” for “leaves”

For data set [4], the system named is peach aphid (Myzus persicae). As to the kind of experiment: Myzus test. The conditions noted are these: after 6 days, active compound concentration 0.1%, dipped cabbage leaves. How it is done: Myzus Test • Solvent: 7 parts by weight of dimethylformamide • Emulsifier: 1 part by weight of alkylaryl polyglycol ether To produce a suitable preparation of active compound, 1 part by weight of active compound is mixed with the stated amount of solvent and the stated amount of emulsifier, and the concentrate is diluted with water to the desired concentration. Cabbage leaves (Brassica oleracea) which are heavily infested by the peach aphid (Myzus persicae) are treated by being dipped into the preparation of the active compound of the desired concentration. After the specified periods of time, the destruction in % is determined. 100% means that all the caterpillars have been killed; 0% means that none of the caterpillars have been killed.

Data set [5] deals with All larval stages of Lucilia cuprina (OP-resistant). As to the kind of experiment: Test with fly larvae/development-inhibiting action. Particulars: active compound concentration 1000 ppm, read-out: action (larvicidal / development-inhibiting). As to the method:
Test with Fly Larvae/Development-Inhibiting Action
• Test animals: All larval stages of Lucilia cuprina (OP-resistant) [pupae and adults (without contact with the active compound)] • Solvent: 35 parts by weight of ethylene glycol monomethyl ether 35 parts by weight of nonylphenol polyglycol ether
To produce a suitable formulation, 3 parts by weight of active compound are mixed with seven parts of the abovementioned solvent/emulsifier mixture and the emulsion concentrate thus obtained is diluted with water to the particular desired concentration.
30 to 50 larvae per concentration are introduced onto horse-meat (1 cm^3), in glass tubes, onto which 500 μl of the dilution to be tested are pipetted. The glass tubes are placed in plastic beakers, the base of which is covered with beach sand, and are stored in a climatically controlled room (26° C.±1.5° C., 70% relative humidity±10%). The action is checked after 24 hours and 48 hours (larvicidal action). After emergence of the larvae (about 72 hours), the glass tubes are removed and perforated plastic lids are placed on the beakers. After 1½ times the development period (hatching of the control flies), the flies which have hatched and the pupae/pupae cases are counted. […]

For data set [6], the system named is Boophilus microplus resistant/SP-resistant Parkhurst strain, adult satiated females. As to the kind of experiment: Test with Boophilus microplus resistant/SP-resistant Parkhurst strain. The conditions noted are these: 20 μg per animal, injected into the abdomen. How it is done:
Test with Boophilus microplus Resistant/SP-resistant Parkhurst Strain
• Test animals: Adult satiated females • Solvent: Dimethyl sulphoxide
20 mg of active compound are dissolved in 1 ml of dimethyl sulphoxide, and lower concentrations are prepared by dilution in the same solvent.
The test is carried out as a 5-fold determination. 1 μl of the solutions is injected into the abdomen and the animals are transferred to dishes and kept in a climatically controlled room. The action is determined via the inhibition of oviposition. 100% means that no tick has laid.

In another data set the test system is Alopecurus myosuroids. As to the kind of experiment: Pre-emergence test. Particulars: 500 g/ha, rated after three weeks vs untreated control. How it is done:
(§2) • Solvent: 5 parts by weight of acetone • Emulsifier: 1 part by weight of alkylaryl polyglycol ether
(§3) To produce a suitable preparation of active compound, 1 part by weight of active compound is mixed with the stated amount of solvent, the stated amount of emulsifier is added and the concentrate is diluted with water to the desired concentration.
(§4) Seeds of the test plants are sown in normal soil and, after 24 hours, watered with the preparation of the active compound. It is expedient to keep constant the amount of water per unit area. The concentration of the active compound in the preparation is of no importance, only the amount of active compound applied per unit area being decisive.
(§5) After three weeks, the degree of damage to the plants is rated in % damage in comparison to the development of the untreated control.
(§6) The figures denote: • 0%=no action (like untreated control) • 100%=total destruction

For another data set, the system named is Avena fatua. As to the kind of experiment: Pre-emergence test. Particulars: 500 g/ha, rated after three weeks vs untreated control. How it is done:
as §2, §3, §4, §5, §6

In the next data set the test system is Setaria viridis. As to the kind of experiment: Pre-emergence test. The conditions noted are these: 500 g/ha, rated after three weeks vs untreated control. How it is done:
as §2, §3, §4, §5, §6

The next data set relates to Beta vulgaris. The experiment in a line: Pre-emergence test (crop tolerance). The conditions noted are these: 500 g/ha. As to the method:
as §2, §3, §4, §5, §6

For data set [7], the system named is mustard beetle larvae (Phaedon cochleariae). As to the kind of experiment: Phaedon larvae test. Particulars: after 7 days, active concentration 0.1%, dipped cabbage leaves. As to the method: Phaedon Larvae Test • Solvent: 7 parts by weight of dimethylformamide • Emulsifier: 1 part by weight of alkylaryl polyglycol ether To produce a suitable preparation of active compound, 1 part by weight of active compound is mixed with the stated amount of solvent and the stated amount of emulsifier, and the concentrate is diluted with water to the desired concentration. Cabbage leaves (Brassica oleracea) are treated by being dipped into the preparation of the active compound of the desired concentration and are infested with mustard beetle larvae (Phaedon cochleariae), as long as the leaves are still moist. After the specified periods of time, the destruction in % is determined. 100% means that all the beetle larvae have been killed; 0% means that none of the beetle larvae have been killed.

On to `Cc1cc(C)c(C2=C(OC(=O)C(C)C)C3(CCC(C)CC3)NC2=O)cc1C` (single isomer, unassigned) [Example I-1-b-2], for which the destruction in data set [1], in data set [2], in [3] and in data set [4] was 100% throughout.
As for `COC1CCC2(CC1)NC(=O)C(c1cc(C)c(C)cc1C)=C2OC(=O)C(C)C` (single isomer, unassigned) [Example I-1-b-3], the destruction in data set [3] and in data set [4] was 100% throughout.
For the compound `COC1CCC2(CC1)NC(=O)C(c1cc(C)c(C)cc1C)=C2OC(=O)OCC(C)C` (single isomer, unassigned) [Example I-1-c-2], the destruction in data set [3] and in data set [4] was 100% throughout.
The compound `COC1CCC2(CC1)NC(=O)C(c1cc(C)c(C)cc1C)=C2OC(=O)OCC(C)C` (single isomer, unassigned) [Example I-1-c-3] returned a destruction in data set [3] of 100%.
`Cc1cc(C)c(C2=C(O)C3(CCC(C)CC3)NC2=O)cc1C` (centres unmarked) [Example I-1-a-1]: the destruction in data set [1], in [2] and in data set [3] was 100% in each case.
In turn, `CC(=O)OC1=C(c2cc(C)c(C)cc2C)C(=O)NC12CCC(C)CC2` (centres unmarked) [Example I-1-b-1] yielded a destruction in [3] of 100%.
As for `CCOC(=O)OC1=C(c2cc(C)c(C)cc2C)C(=O)NC12CCC(C)CC2` (centres unmarked) [Example I-1-c-1], the destruction in data set [1] and in [3] was 100% in each case.
The compound `Cc1cc(C)c(C2=C(O)C3(CCCCC3)OC2=O)cc1C` [Example I-2-a-1] registered a destruction in [4] of 100%.
`Cc1cc(C)c(C2=C(O)C3(CCC(C)CC3)OC2=O)cc1C` (centres unmarked) [Example I-2-a-2] registered a destruction in data set [3] of 100%.
Same read-out and setting: in the case of `COC1CCC2(CC1)OC(=O)C(c1cc(C)c(C)cc1C)=C2O` (centres unmarked) [Example I-2-a-3] it was 100%.
With `COC1CCC2(CC1)OC(=O)C(c1cc(C)c(C)cc1C)=C2OC(=O)C(C)C` (centres unmarked) [Example I-2-b-4], the destruction in [3] and in [4] was 100% throughout.
On to `COC1CCC2(CC1)OC(=O)C(c1cc(C)c(C)cc1C)=C2OC(=O)C(C)(C)C` (centres unmarked) [Example I-2-b-5], for which, in data set [3], the destruction came to 100%.
Consider `Cc1cc(C)c(-c2c(O)c3c(oc2=O)C(C)(C)OC3(C)C)cc1C` [Example I-4-a-1], for which the destruction in data set [1] and in [2] was 100% throughout. The inhibition at 1000 ppm in data set [5] worked out at 100%. The “action (inhibition of oviposition)” value in data set [6] turned out to be 100%.
Regarding `Cc1cc(C)c(-c2c(O)c(C)c(-c3ccc(F)cc3)oc2=O)cc1C` [Example I-4-a-3], the destruction in [1], in data set [2] and in data set [3] was 100% throughout. Further, the results for the damage in the data set on Alopecurus myosuroids, with Avena fatua and with Setaria viridis were 90%, 96% and 95%, respectively. In addition, the “tolerance by crop plant” value with Beta vulgaris is given as “good tolerance”.
Take `Cc1cc(C)c(-c2c(O)c(C)c(-c3ccccn3)oc2=O)cc1C` [Example I-4-a-4]: the destruction in [7], in data set [1], in data set [2], in [3] and in data set [4] was 100% each time.
In the case of `CC(=O)Oc1c2c(oc(=O)c1-c1cc(C)c(C)cc1C)C(C)(C)OC2(C)C` [Example I-4-b-1], the destruction in data set [7], in data set [1] and in data set [2] was 100% in each case. In data set [6], the “action (inhibition of oviposition)” value amounted to 100%.
